Reference: patent US20230391772A1, “METHODS AND COMPOSITIONS FOR TARGETED PROTEIN DEGRADATION” (Ranok Therapeutics (Hangzhou) Co. Ltd., priority 2020, published 2023)

Tests used:
[1] = target: T1, KRAS(G12C) (Homo sapiens, UniProt P01116, G12C); assay: KRAS(G12C)/SOS1 homogeneous time-resolved fluorescence (HTRF) assay; parameters: purchased Cisbio 63ADK000CB16PEG; conditions: absence of GTP, 4° C. for 3 hr, read-out: KRAS (G12C) binding
In short: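 Three-hour incubation at 4 °C of 3-fold compound dilutions (lowest 1.02 nM) with KRAS(G12C), SOS1 and detection reagents, GTP absent. Disruption of the KRAS(G12C)/SOS1 complex detected by time-resolved fluorescence.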

[2] = test system: MIA PaCa-2 human pancreatic carcinoma; assay: MIA PaCa-2 CCK-8 proliferation assay; format: cell-based; conditions: Homo sapiens, MIA PaCa-2, 72 h, MIA PaCa-2 cells
In short: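 Compounds were tested as a 3-fold series from 20 μM down to 1.02 nM in CCK-8 absorbance assays. The lines used were NCI-H23 and NCI-H358, each with 1 KRAS(G12C) copy, and MIA PaCa-2 with 2 copies. Inhibition was derived relative to DMSO controls, with a no-cell blank subtracted.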

[3] = target: T1, KRAS(G12C); assay: KRAS(G12C) Western blot protein degradation assay in LU65A cells; format: cell-based; parameters: LU65A human lung cancer cell line, which expresses KRAS(G12C); host or cells: LU65A; conditions: 6 hr
Description: The following cancer cell lines were employed: BT-474 human breast carcinoma (ATCC, #HTB-20); MIA PaCa-2 human pancreatic carcinoma [2 copies KRAS(G12C)](ATCC, #CRL-1420); NCI-H23 human non-small cell lung cancer [1 copy KRAS(G12C)](ATCC, #CRL-5800); NCI-H358 human non-small cell lung cancer [1 copy KRAS(G12C)](ATCC, #CRL-5807); LU65A human lung carcinoma (Pharmaron, Beijing, China). Cell lines were cultured essentially according to ATCC and Pharmaron recommendations.
KRAS(G12C) Western Blot Protein Degradation Assay
The MIA PaCa-2 human pancreatic carcinoma cell line and LU65A human lung cancer cell line, which expresses KRAS(G12C), were seeded in 6- or 12-well tissue culture plates, and after 1 hr, test compounds were added at various concentrations and incubated at 37° C./5% CO2 for 48 hr (MIA Paca-2) and 6 hr (LU65A) respectively. Cells were then washed with cold PBS, aspirated and cold RIPA buffer containing a protease/phosphatase inhibitor cocktail was added to lyse cells. After centrifugation, the total protein concentrations of cell lysates were determined using the BCA protein assay. Samples were normalized for equivalent protein concentrations, 5×SDS-PAGE loading buffer added and denatured at 100° C. for 10 min. 20 μl of each sample/well was loaded on a SDS-PAGE gel and electrophoresed for 20 min at 80 V, then 120 V for 1.5 hr. Gels were then electroblotted to nitrocellulose membranes using a wet-transfer method at 250 mA for 2.5 hr. Membranes were incubated with blocking buffer for 1 hr and washed 3 times with TBST for 5 min. Membranes were then incubated with anti-KRAS (Sigma-Aldrich, #SAB1404011) and anti-β-Actin monoclonal antibodies (Cell Signaling Technology, #3700) diluted in blocking buffer at 4° C. overnight per the manufacturer's recommendations. After washing 3 times, blots were incubated with appropriately labeled secondary antibodies for 1 hr at room temperature and washed again. Fluorescence imaging and quantitation was performed using a LI-COR Odyssey. Results was analyzed using GraphPad Prism 7 software. Compound degradation of was determined by the following equation and DC50 values (the concentration at which 50% of the maximal degradation of KRAS occurs) calculated using GraphPad Prism 7 software:
% Inhibition=100−(D−B)/(S−B)*100%. • S: Fluorescence intensity of cells with antibody • D: Fluorescence intensity of compound-treated cells with antibody • B: Fluorescence intensity of cells without antibody

T1 sequence (P01116 1-188 isoform P01116-2 G12C): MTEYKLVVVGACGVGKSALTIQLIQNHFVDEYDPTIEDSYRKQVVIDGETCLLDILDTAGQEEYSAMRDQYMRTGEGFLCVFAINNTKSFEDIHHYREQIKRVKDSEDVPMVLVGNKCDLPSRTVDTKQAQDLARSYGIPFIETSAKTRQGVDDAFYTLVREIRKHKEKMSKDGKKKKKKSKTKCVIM

Row | IC50 [1] [nM] | EC50 [2] [nM] | DC50 [3] [nM] | Compound
1 | 100 to 1000 | > 1000 | 100 to 1000 | C=CC(=O)N1CCN(c2nc(OCCN3CCN(C(=O)C4CCN(Cc5ccc(-n6c(C(=O)NCC(F)(F)F)nnc6-c6cc(C(C)C)c(O)cc6O)cc5)CC4)C[C@H]3CN(C)C)nc3c2CCN(c2cccc4cccc(Cl)c24)C3)C[C@@H]1CC#N [Compound 266, 4-(4-((4-((R)-4-(2-((4-((S)-4-acryloyl-3-(cyanomethyl)piperazin-1-yl)-7-(8-chloronaphthalen-1-yl)-5,6,7,8-tetrahydropyrido[3,4-d]pyrimidin-2-yl)oxy)ethyl)-3-((dimethylamino)methyl)piperazine-1-carbonyl)piperidin-1-yl)methyl)phenyl)-5-(2,4-dihydroxy-5-isopropylphenyl)-N-(2,2,2-trifluoroethyl)-4H-1,2,4-triazole-3-carboxamide]
2 | < 100 | 100 to 1000 | 100 to 1000 | C=CC(=O)N1CCN(c2nc(OC[C@@H]3C[C@H](N4CCN(Cc5ccc(-n6c(C(=O)NCC)nnc6-c6cc(C(C)C)c(O)cc6O)cc5)CC4)CN3C)nc3c2CCN(c2cccc4ccc(F)c(Cl)c24)C3)C[C@@H]1CC#N [Compound 278, 4-[4-({4-[(3S,5S)-5-({[7-(8-chloro-7-fluoronaphthalen-1-yl)-4-[(3S)-3-(cyanomethyl)-4-(prop-2-enoyl)piperazin-1-yl]-5H,6H,8H-pyrido[3,4-d]pyrimidin-2-yl]oxy}methyl)-1-methylpyrrolidin-3-yl]piperazin-1-yl}methyl)phenyl]-5-(2,4-dihydroxy-5-isopropylphenyl)-N-ethyl-1,2,4-triazole-3-carboxamide]
3 | < 100 | < 100 | 100 to 1000 | C=CC(=O)N1CCN(c2nc(OCC3(CN4CCN(Cc5ccc(-n6c(C(=O)NCC)nnc6-c6cc(C(C)C)c(O)cc6O)cc5)CC4)CC3)nc3c2CCN(c2cccc4cccc(Cl)c24)C3)C[C@@H]1CC#N [Compound 285, 4-{4-[(4-{[1-({[7-(8-chloronaphthalen-1-yl)-4-[(3S)-3-(cyanomethyl)-4-(prop-2-enoyl)piperazin-1-yl]-5H,6H,8H-pyrido[3,4-d]pyrimidin-2-yl]oxy}methyl)cyclopropyl]methyl}piperazin-1-yl)methyl]phenyl}-5-(2,4-dihydroxy-5-isopropylphenyl)-N-ethyl-1,2,4-triazole-3-carboxamide]
4 | < 100 | < 100 | > 1000 | C=CC(=O)N1CCN(c2nc(OC[C@@H]3C[C@H](N4CCN(CC5CCN(Cc6ccc7c(c6)CN(C(=O)c6cc(C(C)C)c(O)cc6O)C7)CC5)CC4)CN3C)nc3c2CCN(c2cccc4cccc(Cl)c24)C3)C[C@@H]1CC#N [Compound 290, 2-[(2S)-4-[7-(8-chloronaphthalen-1-yl)-2-{[(2S,4S)-4-{4-[(1-{[2-(2,4-dihydroxy-5-isopropylbenzoyl)-1,3-dihydroisoindol-5-yl]methyl}piperidin-4-yl)methyl]piperazin-1-yl}-1-methylpyrrolidin-2-yl]methoxy}-5H,6H,8H-pyrido[3,4-d]pyrimidin-4-yl]-1-(prop-2-enoyl)piperazin-2-yl]acetonitrile]
5 | 100 to 1000 | 100 to 1000 | > 1000 | C=CC(=O)N1CCN(c2nc(OCCN3CCC(N4CCN(Cc5ccc(-n6c(O)nnc6-c6cc(C(C)C)c(O)cc6O)cc5)CC4)CC3)nc3c2CCN(c2cccc4cccc(Cl)c24)C3)C[C@@H]1CC#N [Compound 237, (S)-2-(1-acryloyl-4-(7-(8-chloronaphthalen-1-yl)-2-(2-(4-(4-(4-(3-(2,4-dihydroxy-5-isopropylphenyl)-5-hydroxy-4H-1,2,4-triazol-4-yl)benzyl)piperazin-1-yl)piperidin-1-yl)ethoxy)-5,6,7,8-tetrahydropyrido[3,4-d]pyrimidin-4-yl)piperazin-2-yl)acetonitrile]
6 | < 100 | < 100 | 100 to 1000 | C=CC(=O)N1CCN(c2nc(OC[C@@H]3C[C@H](N4CCN(Cc5ccc(-n6c(C(=O)NCC)nnc6-c6cc(C(C)C)c(O)cc6O)cc5)CC4)CN3C)nc3c2CCN(c2cccc4cccc(C)c24)C3)C[C@@H]1CC#N [Compound 280, 4-[4-({4-[(3S,5S)-5-[({4-[(3S)-3-(cyanomethyl)-4-(prop-2-enoyl)piperazin-1-yl]-7-(8-methylnaphthalen-1-yl)-5H,6H,8H-pyrido[3,4-d]pyrimidin-2-yl}oxy)methyl]-1-methylpyrrolidin-3-yl]piperazin-1-yl}methyl)phenyl]-5-(2,4-dihydroxy-5-iso-propylphenyl)-N-ethyl-1,2,4-triazole-3-carboxamide]
7 | < 100 | 100 to 1000 | 100 to 1000 | C=CC(=O)N1CCN(c2nc(OC[C@@H]3C[C@H](N4CCN(C(=O)C5CCN(Cc6ccc(-n7c(O)nnc7-c7cc(C(C)C)c(O)cc7O)cc6)CC5)CC4)CN3C)nc3c2CCN(c2cccc4cccc(Cl)c24)C3)C[C@@H]1CC#N [Compound 264, 2-[(2S)-4-[7-(8-chloronaphthalen-1-yl)-2-{[(2S,4S)-4-{4-[1-({4-[3-(2,4-dihydroxy-5-isopropylphenyl)-5-hydroxy-1,2,4-triazol-4-yl]phenyl}methyl)piperidine-4-carbonyl]piperazin-1-yl}-1-methylpyrrolidin-2-yl]methoxy}-5H,6H,8H-pyrido[3,4-d]pyrimidin-4-yl]-1-(prop-2-enoyl)piperazin-2-yl]acetonitrile]
8 | < 100 | 100 to 1000 | 100 to 1000 | C=CC(=O)N1CCN(c2nc(OC[C@@H]3CC[C@H](CN4CCN(Cc5ccc(-n6c(C(=O)NCC)nnc6-c6cc(C(C)C)c(O)cc6O)cc5)CC4)N3C)nc3c2CCN(c2cccc(C)c2C)C3)C[C@@H]1CC#N [Compound 282, 4-{4-[(4-{[(2R,5S)-5-[({4-[(3S)-3-(cyanomethyl)-4-(prop-2-enoyl)piperazin-1-yl]-7-(2,3-dimethylphenyl)-5H,6H,8H-pyrido[3,4-d]pyrimidin-2-yl}oxy)methyl]-1-methylpyrrolidin-2-yl]methyl}piperazin-1-yl)methyl]phenyl}-5-(2,4-dihydroxy-5-isopropylphenyl)-N-ethyl-1,2,4-triazole-3-carboxamide]
9 | 100 to 1000 | 100 to 1000 | > 1000 | C=CC(=O)N1CCN(c2nc(OC[C@@H]3C[C@@H](N(C)C(=O)C4CCN(Cc5ccc(-n6c(C(=O)NCC(F)(F)F)nnc6-c6cc(C(C)C)c(O)cc6O)cc5)CC4)CN3C)nc3c2CCN(c2cccc4cccc(Cl)c24)C3)C[C@@H]1CC#N [Compound 235, N-((3R,5S)-5-(((4-((S)-4-acryloyl-3-(cyanomethyl)piperazin-1-yl)-7-(8-chloronaphthalen-1-yl)-5,6,7,8-tetrahydropyrido[3,4-d]pyrimidin-2-yl)oxy)methyl)-1-methylpyrrolidin-3-yl)-1-(4-(3-(2,4-dihydroxy-5-isopropylphenyl)-5-((2,2,2-trifluoroethyl)carbamoyl)-4H-1,2,4-triazol-4-yl)benzyl)-N-methylpiperidine-4-carboxamide]
10 | < 100 | 100 to 1000 | 100 to 1000 | C=CC(=O)N1CCN(c2nc(OC[C@@H]3CC[C@H](CN4CCN(Cc5ccc(-n6c(O)nnc6-c6cc(C(C)C)c(O)cc6O)cc5)CC4)N3C)nc3c2CCN(c2cccc(C)c2C)C3)C[C@@H]1CC#N [Compound 281, 2-[(2S)-4-(2-{[(2S,5R)-5-{[4-({4-[3-(2,4-dihydroxy-5-isopropylphenyl)-5-hydroxy-1,2,4-triazol-4-yl]phenyl}methyl)piperazin-1-yl]methyl}-1-methylpyrrolidin-2-yl]methoxy}-7-(2,3-dimethylphenyl)-5H,6H,8H-pyrido[3,4-d]pyrimidin-4-yl)-1-(prop-2-enoyl)piperazin-2-yl]acetonitrile]
